# Experimental data from patent publication US4666897A, “Inhibition of mammalian collagenolytic enzymes by tetracyclines” (Research Foundation of State University, priority 1983, dated 1987).
# Key:
# [1] = test system: fetal rat bones (radii and ulnae) in organ culture; experiment: PTH-induced bone resorption in organ culture (45calcium release); format: cell-based
# Procedure: The technique used to assess bone resorption is based on monitoring the release of radioactive calcium, previously incorporated by embryonic bones in vivo, during organ culture. Pregnant Sprague-Dawley rats were injected subcutaneously with 200 μCi of ^45 calcium chloride on the 18th day of gestation. The following day, the animals were killed, the fetuses removed, and the radii and ulnae dissected under aseptic conditions. […] The bones were then randomly distributed and each bone, either a radius or ulna, was incubated in 0.5 ml of culture media alone or in a media containing parathyroid hormone (PTH: human synthetic 1-34 peptide, Beckman Instruments, Inc., Palo Alto, California) added in a final concentration of 1.0 μg/ml; the experimental bones were incubated in the PTH containing medium to which was added different concentrations (0.2-300 μg/ml) of the antibiotics to be tested. The bones were cultured for 5 days, with the media being changed after day 2, and the incubation terminated. The bones were decalcified in 0.2 ml of 5% trichloroacetic acid and the ^45 calcium content of the residual bones and of the culture media was measured as described previously. (Werner and Raisz, Endocrinology, 90, 752 (1972 ) and Gomes, et. al., Calc. Tiss. Res., 19, 285 (1976)). The ^45 calcium released into the media was calculated as a percentage of the total radioactive calcium measured in the bones.
# [2] = test system: gingival collagenolytic enzyme activity of diabetic rats; experiment: Collagenolytic enzyme activity in extracts of gingiva from diabetic rats given minocycline; format: in vivo, rat; conditions: for Gingival Collagenolytic Activity (% C^14-Collagen Degraded): diabetes + oral daily drug
# Procedure: Rats were made diabetic chemically with the agent streptozotocin. Some of the diabetic rats (half were administered minocycline orally on a daily basis) were killed 15 days, or 28 days, or 56 days after inducing diabetes and the gingiva were dissected, the tissues were extracted, and the extracts partially purified by ammonium sulfate precipitation. The partially purified enzyme preparation from the gingiva of a group of non-diabetic (control) rats, and the diabetic rats, was incubated at 37° C. in vitro with radiolabeled collagen fibrils to assess collagenolytic ennzyme activity.
# [3] = during a therapeutic regimen; cited from earlier work
# [4] = molecular target: T1, rat PMNL collagenolytic activity (PMNL collagenase) (Rattus norvegicus, UniProt O88766); experiment: Rat PMNL collagenolytic activity in vitro (14C-collagen gel lysis); format: biochemical
# T1 construct: An extract of PMNLs was prepared; from tissue; host or cells: extract of peritoneal exudate polymorphonuclear leucocytes of non-diabetic rats, elicited with glycogen
# Procedure: To test the effect of physiologic levels of minocycline (the concentration in human serum, during a therapeutic regimen, is approximately 2 ug/ml; that in the gingival crevicular fluid is 4-5 times greater; Ciancio, et. al., 1980, J. Periodontol., 51, 531-534) on mammalian collagenolytic activity in vitro, peritonealexudate polymorphomuclear leucocytes (PMNLs) were collected from 15 mole (non-diabetic) rats 4 hours after I.P. injection of 0.15% glycogen. An extract of PMNLs was prepared, 250 μl aliquots of this extract were incubated with ^14 C-glycine labeled collagen fibrils for 14 hours at 35° C. (in the presence or absence of minocycline, or EDTA, or additional CaCl2), and collagenolytic activity was measured as described by Nicoll, et al., (Experientia., 37, 315-317).
# The techniques used to measure the collagenolytic enzyme activity of gingival tissue in culture, and in polymorphonuclear leucocytes (PMNLs), are those described by Golub, et. al., (J. Dent. Res., 57, 520-525 (197)8) and Nicoll, et. al., (Experimentia, 37, 315-317, (1981)) with minor modifications.
# [5] = test system: synovial tissue collagenolytic activity; experiment: Collagenolytic activity in extracts of synovial tissue from patients with rheumatoid arthritis; format: in vivo, human; parameters: Synovial Tissue Collagenolytic Activity (% C^14-collagen degraded) After Minocycline Treatment / % Reduction by Treatment: concentration or dose not given beside the values
# Procedure: In each of three patients, the diseased joint tissue on one side was surgically removed for therapeutic reasons. The three patients were then administered minocycline orally for 10 days and the diseased joint (synovial) tissue on the opposite side was surgically removed (for therapeutic reasons) after the course of minocycline treatment was completed. The tissues were coded, stored frozen, and analyzed double blind to eliminate any bias in the development of the data. The tissues were dried, the lipid removed, and the collagenolytic activity in the diseased joint tissues extracted and concentrated. Aliquots of the extract from each diseased joint were incubated in vitro with radiolabelled collagen fibrils for 72 hours at 37° C. to assess collagen destructive (collagenolytic) enzyme activity.
# [6] = Table 3, PTH + 2 μg/ml minocycline + 100 μg/ml Pen.-Strep.
# [7] = Table 3, PTH + 2 μg/ml minocycline + 300 μg/ml Pen.-Strep.
# [8] = Table 3, PTH + 20 μg/ml minocycline + 100 μg/ml Pen.-Strep.
# T1 sequence (O88766 102-466): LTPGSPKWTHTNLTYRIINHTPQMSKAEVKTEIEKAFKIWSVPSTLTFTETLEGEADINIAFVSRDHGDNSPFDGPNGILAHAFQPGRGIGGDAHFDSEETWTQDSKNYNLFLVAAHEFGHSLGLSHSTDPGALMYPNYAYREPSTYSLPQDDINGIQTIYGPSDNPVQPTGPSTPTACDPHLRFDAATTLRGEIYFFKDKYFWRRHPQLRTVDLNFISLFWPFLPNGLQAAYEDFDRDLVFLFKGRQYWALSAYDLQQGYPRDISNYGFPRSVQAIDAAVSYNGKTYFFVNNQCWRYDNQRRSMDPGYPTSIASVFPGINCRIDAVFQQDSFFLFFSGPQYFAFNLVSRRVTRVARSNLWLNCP
smiles,measurement,setting,value
"CN(C)c1ccc(O)c2c1C[C@H]1C[C@H]3[C@H](N(C)C)C(O)=C(C(N)=O)C(=O)[C@@]3(O)C(O)=C1C2=O [minocycline, Minocycline]",^45 Calcium in Fetal Bone Released into Media (%) after 2 days incubation,"[1]; Table 3, PTH + 0.2 μg/ml",42.6 ± 0.6%
same,^45 Calcium in fetal bone Released into media (%) after 5 days incubation,"[1]; Table 3, PTH + 0.2 μg/ml",75.6 ± 1.0%
same,^45 Calcium in Fetal Bone Released into Media (%) after 2 days incubation,"[1]; Table 3, PTH + 2 μg/ml",44.2 ± 2.1%
same,^45 Calcium in fetal bone Released into media (%) after 5 days incubation,"[1]; Table 3, PTH + 2 μg/ml",74.7 ± 3.1%
same,^45 Calcium in Fetal Bone Released into Media (%) after 2 days incubation,[1]; [6],42.9 ± 1.9%
same,^45 Calcium in fetal bone Released into media (%) after 5 days incubation,[1]; [6],70.2 ± 3.7%
same,^45 Calcium in Fetal Bone Released into Media (%) after 2 days incubation,[1]; [7],45.7 ± 2.5%
same,^45 Calcium in fetal bone Released into media (%) after 5 days incubation,[1]; [7],71.8 ± 3.5%
same,^45 Calcium in Fetal Bone Released into Media (%) after 2 days incubation,"[1]; Table 3, PTH + 20 μg/ml",22.5 ± 1.6%
same,^45 Calcium in fetal bone Released into media (%) after 5 days incubation,"[1]; Table 3, PTH + 20 μg/ml",29.2 ± 1.8%
same,^45 Calcium in Fetal Bone Released into Media (%) after 2 days incubation,[1]; [8],21.5 ± 1.5%
same,^45 Calcium in fetal bone Released into media (%) after 5 days incubation,[1]; [8],31.9 ± 2.1%
same,^45 Calcium in fetal bone Released into media (%) after 5 days incubation,"[1]; Table 3, PTH + 20 μg/ml minocycline + 300 μg/ml Pen.-Strep.",33.5 ± 1.3%
same,^45 Calcium in Fetal Bone Released into Media (%) after 2 days incubation,"[1]; Table 3, PTH + 60 μg/ml",19.4 ± 0.9%
same,^45 Calcium in fetal bone Released into media (%) after 5 days incubation,"[1]; Table 3, PTH + 60 μg/ml",24.5 ± 1.1%
same,^45 Calcium in Fetal Bone Released into Media (%) after 2 days incubation,"[1]; Table 3, PTH + 200 μg/ml",17.6 ± 0.4%
same,^45 Calcium in fetal bone Released into media (%) after 5 days incubation,"[1]; Table 3, PTH + 200 μg/ml",22.3 ± 0.5%
same,^45 Calcium in Fetal Bone Released into Media (%) after 2 days incubation,"[1]; Table 4, first column, PTH + 0.2 μg/ml",54.5 ± 4.1%
same,^45 Calcium in Fetal Bone Released into Media (%) after 2 days incubation,"[1]; Table 4, first column, PTH + 2.0 μg/ml",56.5 ± 2.6%
same,^45 Calcium in Fetal Bone Released into Media (%) after 2 days incubation,"[1]; Table 4, first column, PTH + 20 μg/ml",40.7 ± 0.8%
same,^45 Calcium in Fetal Bone Released into Media (%) after 2 days incubation,"[1]; Table 4, first column, PTH + 200 μg/ml",16.4 ± 1.1%
same,^45 Calcium in Fetal Bone Released into Media (%) after 2 days incubation,"[1]; Table 4, second column, PTH + 0.2 μg/ml",95.1 ± 1.8%
same,^45 Calcium in Fetal Bone Released into Media (%) after 2 days incubation,"[1]; Table 4, second column, PTH + 2.0 μg/ml",93.3 ± 2.6%
same,^45 Calcium in Fetal Bone Released into Media (%) after 2 days incubation,"[1]; Table 4, second column, PTH + 20 μg/ml",50.1 ± 0.8%
same,^45 Calcium in Fetal Bone Released into Media (%) after 2 days incubation,"[1]; Table 4, second column, PTH + 200 μg/ml",20.4 ± 1.5%
same,"effect on PTH-enhanced bone resorption, in words",[1]; concentrations 0.2-300 μg/ml,inhibit ^45 calcium release in a dose responsive manner
same,% Inhibition of Collagenolytic Activity by Minocycline,[2]; 15 days,42.5%
same,% Inhibition of Collagenolytic Activity by Minocycline,[2]; 28 days,72.7%
same,% Inhibition of Collagenolytic Activity by Minocycline,[2]; 56 days,77.2%
same,Gingival Collagenolytic Activity (% C^14-Collagen Degraded),"[2]; 15 days, untreated diabetic 50.4, control 9.1",29.0%
same,Gingival Collagenolytic Activity (% C^14-Collagen Degraded),"[2]; 28 days, untreated diabetic 63.0, control 9.1",17.2%
same,Gingival Collagenolytic Activity (% C^14-Collagen Degraded),"[2]; 56 days, untreated diabetic 47.8, control 9.1",10.9%
same,concentration in human serum,[3],approximately 2 ug/ml
same,concentration in the gingival crevicular fluid relative to serum,[3],4-5 times greater
same,"effect on PMNL collagenolytic (collagenase) activity, in words",[4]; Table 1,almost complete inhibition
same,Collagenolytic Activity: % ^14 C-collagen gel lysed,"[4]; Table 1, PMNL extract + 5 μg/ml, control extract 85.5",12.4%
same,Collagenolytic Activity: % ^14 C-collagen gel lysed,"[4]; Table 1, PMNL extract + 20 μg/ml + CaCl2 10 mM",38.5%
same,Collagenolytic Activity: % ^14 C-collagen gel lysed,"[4]; Table 1, PMNL extract + 20 μg/ml + CaCl2 50 mM",82.1%
same,Collagenolytic Activity: % ^14 C-collagen gel lysed,"[4]; Table 1, PMNL extract + 20 μg/ml, control extract 85.5",8.3%
same,Collagenolytic Activity: % ^14 C-collagen gel lyzed,"[4]; Table 2, PMNL extract (30 × 10^6 PMNLs per ml) + 20 ug/ml, control extract 39.0",4.0%
same,% Reduction by Treatment,[5]; Patient #1,81.8%
same,Synovial Tissue Collagenolytic Activity (% C^14-collagen degraded) After Minocycline Treatment,"[5]; Patient #1, oral for 10 days, before treatment 43.0",7.8%
same,% Reduction by Treatment,[5]; Patient #2,68.8%
same,Synovial Tissue Collagenolytic Activity (% C^14-collagen degraded) After Minocycline Treatment,"[5]; Patient #2, oral for 10 days, before treatment 41.0",12.8%
same,% Reduction by Treatment,[5]; Patient #3,did not reduce collagenolytic activity much further
same,Synovial Tissue Collagenolytic Activity (% C^14-collagen degraded) After Minocycline Treatment,"[5]; Patient #3, oral for 10 days, before treatment 18.6",18.0%
same,% Reduction by Treatment,"[5]; Patient #3, listed as Minocycline",3.3%
same,reduction of synovial collagenolytic enzyme activity,[5]; patients #1 and 2 (high level of activity),69-82%
